Source: patent US20030017976A1, “Therapeutic properties of liposome-encapsulated immunomodulators” (priority 1998, published 2003)
Where “and” joins values, the source holds several entries; their conditions need not be identical. Equal values may be shown once. Read-outs that look alike come from different tables or passages of the source. Marks after values point to notes of the source that are not given here.

How the values were obtained:
[1] = system: C57BL/6 mice; test: Prevention of CPT-11 induced intestinal damage and morbidity by oral immunomodulator; type: in vivo, mouse; settings: for Death / Morbidity: 4 daily i.p., oral saline or free-form MTP-PE 100 ug/dose for one week before
Description: Experimental Design and Methods. […] Tissue was harvested 7 days after the last injection (small intestine and colon distal to the cecum). Histology was prepared. Some mice were monitored for the presence of drug toxicity.
Example 6 has shown that 100, 150, and 200 mg/kg at 4 consecutive i.p. administrations are highly toxic to C57BL/6 mice.

[2] = system: CT-26P colon carcinoma; test: Combination therapy of CT-26P colon carcinoma with CPT-11 and oral liposomal JBT3002; type: in vivo, mouse; settings: day 17; for Liver Weights, mean / Liver Weights, single mice: alone or + oral liposomal JBT3002 1 μg/dose
Description: This course of therapy was repeated weekly for about three weeks prior to tissue harvest. Experimental Groups/Procedures: 40 Balb/c mice were divided into 8 groups of 5 mice each. On day 0, the spleens of the mice were injected with 15,000 cultured CT-26P cells. The groups were then treated as follows: The spleens of Balb/c mice were injected with 15,000 cultured CT-26P colon carcinoma cells on day 0. […] Treated mice received two weeks of chemotherapy and three weeks of the macrophage activator. Tissues were harvested on day 17. The spleens and livers were weighed, the extent of metastasis was graded (denoted below) and histology prepared.

[3] = system: L3.6pl human pancreatic tumors; test: Therapy of L3.6pl human pancreatic tumors in nude mice; type: in vivo, mouse; settings: CPT-11 100 mg/kg i.p. once a week +/− oral JBT 3002 (tablet) 0.05 mcg/dose
Description: Table 19 (A, B, C). Therapy of human pancreatic carcinoma liver metastasis. The pancreas of nude mice were injected with 1×10^6 viable human pancreatic cancer L3.6pl cells. […] This regimen was repeated on a weekly basis for 3 weeks. The mice were killed. Pancreatic tumors, liver metastases, and lymph node metastasis were quantified.

[4] = system: IL-15; test: Ileum and liver lesion histology, BrdUrd and IL-15 expression after JBT 3002 and CPT-11; type: in vivo, mouse
Description: BALB/c mice were injected with CT-26 colon cancer cells into the spleen. […] Four days after the last injection of CPT-11, some mice were killed and their ileum was harvested and prepared for histology, immunohistochemistry, and molecular biology analyses.

[5] = Body weight change and deaths during therapy of CT-26 bearing BALB/c mice; type: in vivo, mouse
[6] = system: C57BL/6 mice
[7] = system: CT-26 colon cancer liver metastasis; test: Combination therapy of MTP-PE and CPT-11 for CT-26 colon cancer liver metastasis
[8] = system: CT-26 colon carcinoma; test: Therapy of experimental liver metastasis of CT-26 colon carcinoma with CPT-11 and oral JBT 3002
[9] = Table 10, oral MLV-HBSS, CPT-11 100 mg/kg i.p. once a week, day 23
[10] = Table 11, CPT-11 100 mg/kg i.p. once a week alone, day 24
[11] = Table 12, oral MLV-HBSS, CPT-11 100 mg/kg 4 daily i.p. (intensive), day 14
[12] = Table 13, oral MLV-HBSS, CPT-11 100 mg/kg i.p. once a week, day 23
[13] = CPT-11 50 mg/kg, oral saline or MTP-PE
[14] = Table 14, MLV-JBT 3002 1.0 μg/dose or FF-JBT 3002 0.05 μg/dose oral 3 days, CPT-11 100 mg/kg 4 daily i.p., day 21
[15] = Table 15, oral JBT 3002 0.05 μg/dose 3 consecutive days and/or CPT-11 100 mg/kg 4 daily i.p., day 21
[16] = Table 16, oral JBT3002 0.05 μg dose thrice weekly 3 weeks and/or CPT-11 100 mg/kg i.p. once a week, day 24

CCc1c2c(nc3ccc(OC(=O)N4CCC(N5CCCCC5)CC4)cc13)-c1cc3c(c(=O)n1C2)COC(=O)[C@]3(O)CC [CPT-11, Irinotecan]
Death ([1]; CPT-11 100 mg/kg): 0/10 | Morbidity ([1]; CPT-11 100 mg/kg): 8/10 | damage to intestinal tissue ([1]; CPT-11 100 mg/kg, oral MTP-PE 100 μg/dose three consecutive days per week, C57BL/6 mice): induces loss of structural integrity of duodenal and large colon crypts | Death ([1]; CPT-11 150 mg/kg): 6/10 | Morbidity ([1]; CPT-11 150 mg/kg): 10/10 | Death ([1]; CPT-11 200 mg/kg): 9/10 | Morbidity ([1]; CPT-11 200 mg/kg): 10/10 | GI toxicity (histology of intestinal villi and lumen) ([1]; oral PBS or MTP-PE 100 μg/dose 3×/week for 3 weeks, then 4 i.p. injections of CPT-11): severe damage to the intestinal villi and lumen | intestinal toxicity (histology) ([1]; oral saline or JBT3002 0.1, 1.0 and 10 μg/dose in PC liposomes, then CPT-11 100 mg/kg i.p. 4 days): induced severe toxicity | Spleen Weights, mean ([2]; CPT-11 25 mg/kg once a week, alone or + oral JBT3002 1 μg/dose in PC liposomes 3x/week): 1.284 ± 0.257 grams | Spleen Weights, single mice ([2]; CPT-11 25 mg/kg once a week, alone or + oral JBT3002 1 μg/dose in PC liposomes 3x/week, 25 mg/kg): 1.486 grams and 0.888 grams and 1.056 grams and 1.588 grams and 1.403 grams | Liver Weights, mean ([2]; CPT-11 25 mg/kg once a week): 1.670 ± 0.301 grams | Liver Weights, single mice ([2]; CPT-11 25 mg/kg once a week, 25 mg/kg): 1.416 grams and 1.460 grams and 2.246 grams | Spleen Weights, mean ([2]; CPT-11 50 mg/kg once a week, alone or + oral JBT3002 1 μg/dose in PC liposomes 3x/week): 0.746 ± 0.561 grams | Liver Weights, single mice ([2]; CPT-11 50 mg/kg once a week, 50 mg/kg): 1.407 grams and 1.205 grams and 1.525 grams | Spleen Weights, mean ([2]; CPT-11 100 mg/kg once a week, alone or + oral JBT3002 1 μg/dose in PC liposomes 3x/week): 0.216 ± 0.110 grams | Liver Weights, mean ([2]; CPT-11 100 mg/kg once a week): 1.203 ± 0.065 grams | Liver Weights, single mice ([2]; CPT-11 100 mg/kg once a week, 100 mg/kg): 1.105 grams and 1.252 grams and 1.172 grams and 1.293 grams and 1.196 grams | Incidence LN met ([3]; 31 days): 7/10 | Incidence WT/PC ([3]; 31 days): 0/10 | Incidence liver met ([3]; 31 days): 0/10 | Tumor weight, Average ([3]; 31 days): 152.10 mg | Tumor weight, Max ([3]; 31 days): 375 mg | Tumor weight, Median ([3]; 31 days): 117.5 mg | Tumor weight, Min ([3]; 31 days): 0 mg | tumor weight (range) ([3]; 31 days): (0-375) mg | Tumor weight, single animals ([3]; 31 days after tumor cell injection, 100 mg/kg): 80 mg and 375 mg and 241 mg and 0 mg (2×) and 98 mg and 318 mg and 137 mg and 205 mg and 67 mg | intestinal architecture of ileum (H&E) ([4]; CPT-11 100 mg/kg, JBT 3002 0.05 μg/dose): produces disruption of the intestinal architecture | expression of IL-15 in the ileum ([4]; mouse, in vivo): significant decrease in expression of IL-15 | ΔBW [5, 9]: −1.7% | ΔBW [5, 10]: −1.5% | ΔBW [5, 11]: −17.6% | ΔBW [5, 12]: 1.2% | ΔBW ([5]; Table 14, MLV-JBT 3002 1.0 μg/dose or FF-JBT 3002 0.05 μg/dose oral 3 days, CPT-11 100 mg/kg 4 daily i.p., day not given): −24.0% | Mice that died during therapy ([5]; Table 15, CPT-11 100 mg/kg 4 daily i.p. alone, 10 mice, 100 mg/kg): 7 of 10 | Survival ([6]; 100 mg/kg CPT-11 i.p. Day 1-4, C57BL6 mice): 5/5 | Survival ([6]; 150 mg/kg CPT-11 i.p. Day 1-4, C57BL6 mice): 3/5 | Survival ([6]; 200 mg/kg CPT-11 i.p. Day 1-4, C57BL6 mice): 0/5 | deaths ([6]; CPT-11 50, 75 or 100 mg/kg once a day for 4 days (i.p.)): None of the injected mice died | lethal dose ([6]; i.p. Day 1-4, C57BL6 mice): 200 mg/kg | Liver Median no. metastases [7, 13]: 30 | Liver weight [7, 13]: 2.0 ± 0.3 | Spleen Tumor size [7, 13]: 8.3 ± 2.0 mm | Spleen Weight [7, 13]: 0.6 ± 0.2 g | Death of mice ([7]; CPT-11 100 mg/kg, oral saline): ------------------All mice died.------------------------ | tumor burden of the liver ([7]; CPT-11 25-100 mg/kg, CT-26P injected into the spleen): dose-dependent reduction in tumor burden of the liver | Liver metastasis Incidence [8, 9]: 5/5 | Liver weight [8, 9]: 1.8 ± 0.3^b g | Spleen (primary) Incidence [8, 9]: 5/5 | Liver metastasis Incidence [8, 10]: 5/5 | Liver weight [8, 10]: 1.7 ± 0.3^c g | Spleen (primary) Incidence [8, 10]: 5/5 | Liver metastasis Incidence [8, 11]: 2/5 | Liver weight [8, 11]: 1.2 ± 0.1 g | Spleen (primary) Incidence [8, 11]: 5/5 | Liver metastasis Incidence [8, 12]: 5/5 | Liver weight [8, 12]: 2.6 ± 0.3 g | Spleen (primary) Incidence [8, 12]: 5/5 | Liver metastasis Incidence [8, 14]: 0/5^b | Liver weight [8, 14]: 1.2 ± 0.2 g | Spleen tumor Incidence [8, 14]: 5/5^b | Liver metastasis Incidence [8, 15]: 1/10^b | Liver weight [8, 15]: 1.9 ± 0.3^c,d g | Spleen tumor Incidence [8, 15]: 6/10^b | Liver metastasis Incidence [8, 16]: 8/10 | Liver weight [8, 16]: 2.0 ± 0.9^c g | Spleen tumor Incidence [8, 16]: 7/10
